Our source for the IC50 values is patent publication US20060079453A1, “Hla binding peptides and their uses” (priority 2002, published 2006).

Read-outs that look alike come from different tables or passages of the source. No end group written: not given here.

Among the targets are HLA-DR DRB1*1101 (DR11) (Homo sapiens, UniProt P01903+P01911, A100R/A169T/A87E/I96F/K41T/L162R/M171V/P40S/Q125H/Q178H/Q39Y/Q99D/R42S/S66Y/T262R/V115G/W38E); HLA-DR DRB1*1302 (DR13) (Homo sapiens, UniProt P01903+P01911, A100E/A169T/K41T/L162R/M171V/P40S/Q125H/Q178H/Q39Y/Q99D/R42S/S66N/T262R/V115G/W38E/Y61H); HLA-DR DRB1*1501 (DR15) (Homo sapiens, UniProt P01903+P01911); HLA-DR DRB1*0301 (DR3) (Homo sapiens, UniProt P01903+P01911, A100K/A102G/A103R/A169T/F55Y/I96L/K41T/L162R/M171V/P40S/Q125H/Q178H/Q39Y/R42S/S66N/T106N/T262R/W38E/Y61H); HLA-DR DRB4*0101 (DR53) (Homo sapiens, UniProt P01903+P13762, G164S); HLA-DR DRB5*0101 (DR51) (Homo sapiens, UniProt P01903+Q30154); HLA-DR DRB1*0101 (DR1) (Homo sapiens, UniProt P01903+P01911, A100R/D57E/F55L/F60I/F76Y/I96L/L162R/M171V/P40L/Q125E/R42F/V115G/Y59C); HLA-DR DRB1*0401 (DR4) (Homo sapiens, UniProt P01903+P01911, A100K/A169T/F76Y/I96L/K127E/L162R/M171V/N62H/P40V/Q125Y/R42H/S133A/S149N/S66Y/V115G/V209L/W38E); HLA-DR DRB1*0701 (DR7) (Homo sapiens, UniProt P01903+P01911, A100R/A102G/A103Q/D57E/D86V/E43K/F76Y/K127E/L162R/M171V/P40G/Q125H/Q99D/R33Q/R42Y/R54Q/S133A/S66F/T210M/V115G/Y107V/Y59L/Y89S).

What all share (assay): biochemical
What all share (assay type): binding

Sequence of HLA-DR DRB1*1101 (DR11) (P01903 26-254 limits assumed, other chains not shown): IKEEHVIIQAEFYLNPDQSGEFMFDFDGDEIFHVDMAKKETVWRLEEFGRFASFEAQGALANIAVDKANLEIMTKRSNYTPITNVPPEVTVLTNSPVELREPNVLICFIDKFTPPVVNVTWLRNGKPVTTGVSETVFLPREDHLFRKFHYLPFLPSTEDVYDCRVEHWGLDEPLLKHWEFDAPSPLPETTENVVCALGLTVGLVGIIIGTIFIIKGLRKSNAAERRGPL
Sequence of HLA-DR DRB1*1302 (DR13) (P01903 26-254 limits assumed, other chains not shown): as above
Sequence of HLA-DR DRB1*0301 (DR3) (P01903 26-254 limits assumed, other chains not shown): as above

For the compound ALLKNYGLLYCFRIW, the results for the IC50 at HLA-DR DRB1*1101 (DR11) (read-out: DRB1 *1101), on HLA-DR DRB1*1302 (DR13) (read-out: DRBI *1302) and at HLA-DR DRB1*1501 (DR15) (read-out: DRBI *1501) were greater than 15.4 µM, 0.01 µM and 0.017 µM, respectively.
Consider LGFFPDHQLDPAFRANT, for which, at HLA-DR DRB1*0301 (DR3) (read-out: DRB1 *0301), the IC50 amounted to 12 µM.
Turning to MLDLQPEITDLYCYE, the IC50 on HLA-DR DRB1*1101 (DR11) (read-out: DRB1 *1101) was greater than 15.2 µM; at HLA-DR DRB1*1302 (DR13) (read-out: DRBI *1302), greater than 12 µM; on HLA-DR DRB1*1501 (DR15) (read-out: DRBI *1501), greater than 48.4 µM; at HLA-DR DRB4*0101 (DR53) (read-out: DRB4 *0101), 0.02 µM; at HLA-DR DRB5*0101 (DR51) (read-out: DRB5 *0101), greater than 15.3 µM.
Taken in the same sequence, the figures for VASLLTTAEVVVTEI were greater than 18.7 µM, greater than 10.3 µM, greater than 50.8 µM, greater than 26.4 µM and greater than 119 µM.
At HLA-DR DRB1*0301 (DR3), YAGIRRDGLLLRLVD registered an IC50 of 0.0096 µM.
YDFVFADLRIVYRDG: the figures for the IC50 at HLA-DR DRB1*1101 (DR11) (read-out: DRB1 *1101), at HLA-DR DRB1*1302 (DR13) (read-out: DRBI *1302) and at HLA-DR DRB1*1501 (DR15) (read-out: DRBI *1501) were 6.54 µM, 8.17 µM and 25.7 µM, respectively.
With LSFFLKEKGGLDGLI, the figures for the IC50 on HLA-DR DRB1*1101 (DR11) (read-out: DRB1 *1101), at HLA-DR DRB1*1302 (DR13) (read-out: DRBI *1302) and at HLA-DR DRB1*1501 (DR15) (read-out: DRBI *1501) were 0.614 µM, greater than 12 µM and greater than 39.7 µM, respectively.
Consider SHDLMLLRLSEPAK, for which the IC50 on HLA-DR DRB1*0101 (DR1) (read-out: DRB1 *0101) is 0.056 µM; on HLA-DR DRB1*0301 (DR3) (read-out: DRB1 *0301) it was 2.4 µM; on HLA-DR DRB1*0401 (DR4) (read-out: DRB1 *0401), 2.24 µM.
YIVMSDWTGGA gave an IC50 against HLA-DR DRB1*0301 (DR3) of 13.4 µM.
Turning to LSHFLKEKGGLEGL, the figures for the IC50 on HLA-DR DRB1*0101 (DR1) (read-out: DRB1 *0101) and on HLA-DR DRB1*0301 (DR3) (read-out: DRB1 *0301) were 0.537 µM and greater than 341 µM, respectively.
For the compound IQQLLMGTVNIVCPT, the IC50 at HLA-DR DRB1*1101 (DR11) (read-out: DRB1 *1101) was 11.1 µM; on HLA-DR DRB1*1302 (DR13) (read-out: DRBI *1302), 0.009 µM; on HLA-DR DRB1*1501 (DR15) (read-out: DRBI *1501), 2.01 µM; on HLA-DR DRB5*0101 (DR51) (read-out: DRB5 *0101) it was greater than 55.1 µM.
Take TYSVSFDSLFSAVKN: the IC50 on HLA-DR DRB1*1101 (DR11) (read-out: DRB1 *1101) came to 5.98 µM; on HLA-DR DRB1*1302 (DR13) (read-out: DRBI *1302), 5.89 µM; on HLA-DR DRB1*1501 (DR15) (read-out: DRBI *1501), 3.22 µM; on HLA-DR DRB5*0101 (DR51) (read-out: DRB5 *0101) it was 0.061 µM.
Compound Ac-ASQKRPSQRHGSKYLATAST had an IC50 against HLA-DR DRB1*0301 (DR3) greater than 900 µM.
Turning to `CC[C@H](C)[C@H](NC(=O)[C@H](C)NC(=O)[C@H](CCC(N)=O)NC(=O)[C@H](CCCNC(=N)N)NC(=O)[C@H](CC(C)C)NC(=O)[C@H](C)NC(=O)[C@@H](NC(=O)[C@H](Cc1c[nH]cn1)NC(=O)[C@H](Cc1c[nH]cn1)NC(=O)[C@@H]1CCCN1)[C@@H](C)O)C(=O)N[C@@H](CC(C)C)C(=O)N[C@@H](CO)C(=O)N[C@@H](Cc1c[nH]c2ccccc12)C(=O)NCC(=O)N[C@@H](CCC(=O)O)C(=O)N[C@@H](CC(C)C)C(=O)N[C@@H](CCSC)C(=O)N[C@H](C(=O)N[C@@H](CC(C)C)C(=O)N[C@@H](C)C(=O)O)[C@@H](C)O`, the IC50 turned out to be 14.4 µM at HLA-DR DRB1*0701 (DR7), 3.12 µM against HLA-DR DRB1*1101 (DR11), 0.0053 µM against HLA-DR DRB1*1501 (DR15) and 0.048 µM on HLA-DR DRB4*0101 (DR53).
KATLQDIVLHLEPQN: the IC50 against HLA-DR DRB1*0101 (DR1) (DRB1 *0101) came out at 1.2 µM; against HLA-DR DRB1*0401 (DR4) (DRB1 *0401), 1.99 µM; on HLA-DR DRB1*0701 (DR7) (DRB1 *0701) it was 9.09 µM; at HLA-DR DRB1*1101 (DR11) (DRB1 *1101), 25.9 µM; against HLA-DR DRB1*1302 (DR13) (DRBI *1302), 0.603 µM; on HLA-DR DRB1*1501 (DR15) (DRBI *1501), 6.97 µM. Besides, the results for the IC50 at HLA-DR DRB4*0101 (DR53) (DRB4 *0101) and against HLA-DR DRB5*0101 (DR51) (DRB5 *0101) were 0.159 µM and greater than 9.93 µM, respectively.
Regarding EFAFKDLFVVYRDSI, the IC50 on HLA-DR DRB1*1101 (DR11) (read-out: DRB1 *1101) came to 9.5 µM; on HLA-DR DRB1*1302 (DR13) (read-out: DRBI *1302), 10 µM; on HLA-DR DRB1*1501 (DR15) (read-out: DRBI *1501), 5.36 µM; at HLA-DR DRB5*0101 (DR51) (read-out: DRB5 *0101) it was 6 µM.
Turning to RGGMVFELANSIVLP, the IC50 on HLA-DR DRB1*1101 (DR11) (read-out: DRB1 *1101) was greater than 50 µM; at HLA-DR DRB1*1302 (DR13) (read-out: DRBI *1302), 0.0044 µM; at HLA-DR DRB1*1501 (DR15) (read-out: DRBI *1501) it was 0.094 µM; on HLA-DR DRB4*0101 (DR53) (read-out: DRB4 *0101), 0.411 µM; on HLA-DR DRB5*0101 (DR51) (read-out: DRB5 *0101), 0.413 µM.
For LSHFLKEKGGLEGLI, the IC50 on HLA-DR DRB1*1101 (DR11) (read-out: DRB1 *1101) was 9.46 µM; on HLA-DR DRB1*1302 (DR13) (read-out: DRBI *1302) it was greater than 12 µM; at HLA-DR DRB1*1501 (DR15) (read-out: DRBI *1501), greater than 39.7 µM; on HLA-DR DRB4*0101 (DR53) (read-out: DRB4 *0101), 18.7 µM; on HLA-DR DRB5*0101 (DR51) (read-out: DRB5 *0101) it was greater than 20.5 µM.
Regarding Ac-NPTKHKWEAAHVAEQLAA, the IC50 at HLA-DR DRB1*1101 (DR11) (DRB1 *1101) is greater than 33.3 µM; at HLA-DR DRB1*1302 (DR13) (DRBI *1302), greater than 10 µM; at HLA-DR DRB1*1501 (DR15) (DRBI *1501), 200 µM.
Take LWWVNNESLPVSPRL: on HLA-DR DRB1*0301 (DR3), the IC50 was 0.315 µM.
On to AAAKAAAAAAYAA, for which the IC50 on HLA-DR DRB1*0301 (DR3) was greater than 900 µM; against HLA-DR DRB1*0401 (DR4) (DRB1 *0401), 0.229 µM.
LQDVVLELTPQTEID: the IC50 was 1.49 µM at HLA-DR DRB1*0101 (DR1) (DRB1 *0101); 5.67 µM against HLA-DR DRB1*0701 (DR7) (DRB1 *0701); greater than 31.6 µM at HLA-DR DRB1*1101 (DR11) (DRB1 *1101); 1.14 µM at HLA-DR DRB1*1302 (DR13) (DRBI *1302); greater than 33.1 µM at HLA-DR DRB1*1501 (DR15) (DRBI *1501); 1.12 µM against HLA-DR DRB4*0101 (DR53) (DRB4 *0101). Besides, the IC50 against HLA-DR DRB5*0101 (DR51) (DRB5 *0101) was greater than 31.4 µM.
In the case of VGGVYLLPRRGPRLGV, the IC50 at HLA-DR DRB1*0301 (DR3) (read-out: DRB1 *0301) came out at 237 µM.
